Results as given in article PMC5739597, “Discovery and evaluation of triple inhibitors of VEGFR-2, TIE-2 and EphB4 as anti-angiogenic and anti-cancer agents” (Oncotarget, 2017).
Several values for one entry are separate records, joined by “and”; a condition that tells them apart may be missing. Identical values can stand only once.

Columns and labels:
EphB4 = molecular target: T1, EphB4 (Homo sapiens, UniProt P54760); test: ADP-Glo in vitro RTK inhibition assay, EphB4; assay type: biochemical; settings: ATP 50 μM
T1 sequence (P54760 16-987): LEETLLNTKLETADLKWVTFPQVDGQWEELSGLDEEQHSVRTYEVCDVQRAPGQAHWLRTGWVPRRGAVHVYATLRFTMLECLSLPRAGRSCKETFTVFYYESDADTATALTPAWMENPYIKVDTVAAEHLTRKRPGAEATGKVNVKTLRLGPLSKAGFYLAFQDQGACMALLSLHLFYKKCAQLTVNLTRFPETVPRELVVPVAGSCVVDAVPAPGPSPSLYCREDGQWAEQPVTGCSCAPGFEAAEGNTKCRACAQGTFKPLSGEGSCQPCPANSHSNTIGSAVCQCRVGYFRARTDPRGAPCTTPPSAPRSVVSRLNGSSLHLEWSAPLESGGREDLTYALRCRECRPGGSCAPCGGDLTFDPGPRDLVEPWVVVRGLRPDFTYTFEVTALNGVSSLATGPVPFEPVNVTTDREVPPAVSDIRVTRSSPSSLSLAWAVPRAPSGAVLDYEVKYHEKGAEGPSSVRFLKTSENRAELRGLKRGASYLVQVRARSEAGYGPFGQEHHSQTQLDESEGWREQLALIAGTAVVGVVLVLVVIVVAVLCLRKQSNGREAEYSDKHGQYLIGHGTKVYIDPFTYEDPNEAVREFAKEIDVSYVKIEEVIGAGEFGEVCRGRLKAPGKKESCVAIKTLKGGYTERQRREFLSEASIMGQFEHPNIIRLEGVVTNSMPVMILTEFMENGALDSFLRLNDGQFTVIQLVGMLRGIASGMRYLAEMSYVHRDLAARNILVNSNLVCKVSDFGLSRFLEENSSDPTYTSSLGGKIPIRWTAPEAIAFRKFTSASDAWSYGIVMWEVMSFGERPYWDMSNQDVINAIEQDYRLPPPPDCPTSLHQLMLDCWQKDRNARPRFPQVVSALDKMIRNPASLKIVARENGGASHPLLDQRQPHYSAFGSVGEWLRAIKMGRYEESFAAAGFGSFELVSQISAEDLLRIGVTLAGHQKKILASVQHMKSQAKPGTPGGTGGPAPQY
Protocol: (§1) In order to validate the direct effect of title compounds on VEGFR-2, Tie-2, and EphB4 kinases, we performed in vitro assay using the ADP-Glo Kinase Assay Kit (Promega, Wisconsin, USA).
(§2) The kinase assay was performed in a reaction mixture of final volume of 10 μL. […] The plate was incubated at 30°C for 1 h. After the plate was cooled at room temperature for 5 min, 5 μL of ADP-Glo reagent was added into each well to stop the reaction and consume the remaining […] within 40 min. At the end, 10 μL of kinase detection reagent was added into the well and incubated for 30 min to produce a luminescence signal. […] The assay plate was incubated at 30°C for 4 h. After the plate was cooled at room temperature for 5 min, 5 μL of ADP-Glo reagent was added into each well to stop the reaction and consume the remaining […] within 1 h. At the end, 10 μL of kinase detection reagent was added into each well and incubated for 30 min to produce a luminescence signal. The luminescence was read by VICTOR-X multi-label plate reader.

TIE-2 = TIE-2 (Homo sapiens, UniProt Q02763); test: ADP-Glo in vitro RTK inhibition assay, TIE-2; assay type: biochemical; settings: ATP 50 μM
Sequence of TIE-2 (Q02763 23-1124): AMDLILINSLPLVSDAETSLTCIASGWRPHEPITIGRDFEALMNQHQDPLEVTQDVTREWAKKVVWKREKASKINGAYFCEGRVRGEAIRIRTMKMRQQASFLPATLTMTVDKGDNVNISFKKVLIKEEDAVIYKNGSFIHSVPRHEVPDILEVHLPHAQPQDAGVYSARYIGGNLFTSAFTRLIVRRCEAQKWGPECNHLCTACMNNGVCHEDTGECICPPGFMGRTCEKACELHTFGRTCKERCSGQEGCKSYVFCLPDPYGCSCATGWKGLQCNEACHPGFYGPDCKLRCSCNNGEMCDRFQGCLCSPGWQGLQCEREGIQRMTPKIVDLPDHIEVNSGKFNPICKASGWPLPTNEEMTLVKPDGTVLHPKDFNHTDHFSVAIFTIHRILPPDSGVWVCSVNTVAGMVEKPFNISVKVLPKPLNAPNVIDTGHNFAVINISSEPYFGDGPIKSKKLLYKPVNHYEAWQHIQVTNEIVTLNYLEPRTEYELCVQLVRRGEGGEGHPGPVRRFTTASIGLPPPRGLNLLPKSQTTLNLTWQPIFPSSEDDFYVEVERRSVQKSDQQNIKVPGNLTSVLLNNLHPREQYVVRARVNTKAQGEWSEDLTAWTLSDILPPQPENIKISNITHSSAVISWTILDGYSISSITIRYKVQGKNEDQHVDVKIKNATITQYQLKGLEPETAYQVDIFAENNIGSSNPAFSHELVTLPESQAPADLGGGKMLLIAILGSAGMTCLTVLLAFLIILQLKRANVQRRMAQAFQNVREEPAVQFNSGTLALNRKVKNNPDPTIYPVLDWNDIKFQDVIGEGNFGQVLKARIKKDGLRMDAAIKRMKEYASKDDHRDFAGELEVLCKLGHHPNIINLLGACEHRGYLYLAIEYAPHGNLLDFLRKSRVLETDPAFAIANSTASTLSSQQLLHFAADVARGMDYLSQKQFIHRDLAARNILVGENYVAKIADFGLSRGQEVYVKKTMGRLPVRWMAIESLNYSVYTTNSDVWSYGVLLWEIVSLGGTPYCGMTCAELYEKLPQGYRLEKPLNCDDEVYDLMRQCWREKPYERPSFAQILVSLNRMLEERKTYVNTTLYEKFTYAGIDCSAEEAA
Protocol: as §1, §2

VEGFR-2 [1] = molecular target: T2, VEGFR-2 (Homo sapiens, UniProt P35968); test: ADP-Glo in vitro RTK inhibition assay, VEGFR-2; assay type: biochemical; settings: ATP 50 μM
T2 sequence (P35968 20-1356): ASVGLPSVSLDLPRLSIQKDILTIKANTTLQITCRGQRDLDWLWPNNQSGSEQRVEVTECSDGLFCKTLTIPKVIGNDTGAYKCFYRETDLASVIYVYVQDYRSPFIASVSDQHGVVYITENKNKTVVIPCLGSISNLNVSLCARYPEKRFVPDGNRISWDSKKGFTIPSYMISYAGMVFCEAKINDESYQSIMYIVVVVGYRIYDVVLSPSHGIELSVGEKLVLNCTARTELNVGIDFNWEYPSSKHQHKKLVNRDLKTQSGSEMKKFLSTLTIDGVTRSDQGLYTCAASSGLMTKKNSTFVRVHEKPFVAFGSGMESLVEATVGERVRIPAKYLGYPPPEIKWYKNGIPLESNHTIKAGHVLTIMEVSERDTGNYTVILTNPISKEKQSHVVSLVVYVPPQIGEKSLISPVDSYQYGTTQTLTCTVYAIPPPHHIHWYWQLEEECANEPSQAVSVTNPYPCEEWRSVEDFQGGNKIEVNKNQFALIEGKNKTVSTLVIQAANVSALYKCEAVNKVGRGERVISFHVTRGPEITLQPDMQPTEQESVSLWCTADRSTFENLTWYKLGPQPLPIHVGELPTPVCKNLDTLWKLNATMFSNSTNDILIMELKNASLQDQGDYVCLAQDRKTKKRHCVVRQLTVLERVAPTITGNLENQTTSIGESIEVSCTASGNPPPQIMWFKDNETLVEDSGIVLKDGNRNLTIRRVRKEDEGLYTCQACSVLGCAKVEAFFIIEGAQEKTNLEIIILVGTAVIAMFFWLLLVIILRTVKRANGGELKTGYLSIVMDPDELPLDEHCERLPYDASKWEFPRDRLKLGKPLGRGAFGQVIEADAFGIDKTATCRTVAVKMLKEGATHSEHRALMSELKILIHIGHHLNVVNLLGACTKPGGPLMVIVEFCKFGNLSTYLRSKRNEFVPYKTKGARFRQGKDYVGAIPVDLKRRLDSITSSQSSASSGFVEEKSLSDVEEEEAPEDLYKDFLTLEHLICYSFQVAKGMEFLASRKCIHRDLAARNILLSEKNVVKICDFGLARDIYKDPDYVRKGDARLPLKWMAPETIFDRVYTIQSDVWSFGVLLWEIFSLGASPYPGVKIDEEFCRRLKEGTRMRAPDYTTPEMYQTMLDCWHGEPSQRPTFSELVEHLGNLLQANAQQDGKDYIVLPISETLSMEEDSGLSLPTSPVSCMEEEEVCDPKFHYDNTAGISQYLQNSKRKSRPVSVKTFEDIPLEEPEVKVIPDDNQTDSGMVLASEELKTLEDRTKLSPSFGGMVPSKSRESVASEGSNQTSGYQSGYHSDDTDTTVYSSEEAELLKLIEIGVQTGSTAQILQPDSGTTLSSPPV
Protocol: as §1, §2

EA.hy926 = test: Human endothelial cell (EA.hy926) viability assay, CCK-8; assay type: cell-based; settings: Homo sapiens, EA.hy 926, 24 h, CCK-8, 24 h treatment; read-out: Inhibition of human endothelial cell viability, EA.hy926 IC50
Protocol: In order to determine the anti-angiogenic effect of these multi-target inhibitors, we evaluated their effect on HECs (EA.hy926) viability using cell counting kit-8 (CCK-8) method.
The viability of HECs (EA.hy926) was assessed using the cell counting kit-8 (CCK-8, Sigma, USA) assay according to the manufacturer's instruction. […] After incubation at 37°C for 48 h, the cells were treated with tested compounds at various concentrations for 24 h. Subsequently, premixed CCK-8 and medium (10 μL) were added into the 96-well plates to monitor cell viability and were incubated at 37°C for 2 h. The number of viable cells was assessed by measurement of absorbance at 450 nm by a microplate reader. The viability rate was calculated as experimental OD value/control OD value.

MCF-7 xenograft = test: In vivo MCF-7 xenograft mice model; settings: ig, 40 mg/kg daily, 21 days
Protocol: Six-week old female BALB/c mice were purchased from Shanghai Laboratory Animal center of the Chinese Academy of Sciences and housed under aseptic and ventilated condition. The mice were inoculated by subcutaneous injection with MCF-7 cancer cells suspended in 5% saline. Tumor volume and weight were measured on alternate days. Body weights were monitored as an indicator of toxicity. […] Treatment started from the next day and continued for 21 days. All mice were killed at the end of the experiment, and subcutaneous tumors were removed and weighted.

VEGFR-2 [2] = molecular target: T2, VEGFR-2; test: VEGFR-2/cell membrane chromatography (CMC) affinity evaluation; assay type: binding; settings: flow rate 0.6 mL/min, 37°C, 5 mM PBS pH 7.4, 270 nm
Protocol: In previous studies, artificial cultures highly expressing VEGFR-2 on HEK293 cell lines were constructed. […] Chromatographic conditions: 10 mm×2.0 mm; flow rate0.6 mL/min; column temperature 37°C; mobile phase 5 mM PBS, pH 7.4; detection wavelength 270 nm.
The VEGFR-2 cell membrane stationary phase was prepared as previous reported. Aqueous ammonium acetate buffer solution (pH 7.4, 5 mM) was pumped at a flow rate of 0.2 mL/min as the mobile phase after VEGFR-2/CMC column was loaded onto the chromatography system at the temperature of 37°C. […] The mobile phase was 5.0 mM phosphate burred saline with a 0.6 mL/min flow rate at a column temperature of 37°C. The detected wavelength was 270 nm. The test compound was injected into the VEGFR-2/CMC column and their retention characteristics were identified to evaluate their affinity with VEGFR-2.

Structure (SMILES) | IC50 (EphB4) [nM] | melting point [°C] | IC50 (TIE-2) [nM] | IC50 (VEGFR-2 [1]) [nM] | Retention time on VEGFR-2/cell membrane stationary phase column (VEGFR-2 [2]) | IC50 (EA.hy926) [nM] | Final body weight (MCF-7 xenograft) [g] | Tumor growth inhibition (MCF-7 xenograft) [%] | Final tumor weight (MCF-7 xenograft; control 0.848±0.5) [g]
FC(F)(F)Oc1cc(Br)ccc1NC(=S)Nc1ccc(-c2cccnc2)cc1 [DATU2, N-[4-bromo-2-(trifluoromethoxy)phenyl]-N’-(4-pyridin-3-ylphenyl)thiourea] | > 500 | 144 to 145 | 64.2 | > 500 | – | 89900 | – | – | –
FC(F)(F)Oc1ccc(NC(=S)Nc2ccc(-c3cccnc3)cc2)c(Br)c1 [DATU3, N-[2-bromo-4-(trifluoromethoxy)phenyl]-N’-(4-pyridin-3-ylphenyl)thiourea] | 21.8 | 162 to 163 | 20 | > 500 | – | 122000 | – | – | –
FC(F)(F)Oc1ccc(Br)cc1NC(=S)Nc1ccc(-c2cccnc2)cc1 [DATU4, N-[5-bromo-2-(trifluoromethoxy)phenyl]-N’-(4-pyridin-3-ylphenyl)thiourea] | 18.7 | 154 to 155 | > 500 | > 500 | – | 44800 | – | – | –
FC(F)(F)Oc1ccc(Br)c(NC(=S)Nc2ccc(-c3cccnc3)cc2)c1 [DATU5, N-[2-bromo-5-(trifluoromethoxy)phenyl]-N’-(4-pyridin-3-ylphenyl)thiourea] | 54.2 | 125 to 126 | > 500 | > 500 | – | 246000 | – | – | –
S=C(Nc1ccc(-c2cccnc2)cc1)Nc1ccc(Cl)cc1Cl [DATU6, N-(2,4-dichlorophenyl)-N’-(4-pyridin-3-ylphenyl)thiourea] | 3.86 | 156 to 157 | 66.5 | 23.5 | – | 24400 | – | – | –
Fc1ccc(NC(=S)Nc2ccc(-c3cccnc3)cc2)cc1F [DATU7, N-(3,4-difluorophenyl)-N’-(4-pyridin-3-ylphenyl)thiourea] | 10 | 139 to 140 | 48.4 | 45.2 | – | 96400 | – | – | –
S=C(Nc1ccc(-c2cccnc2)cc1)Nc1ccc(Cl)c(Cl)c1 [DATU8, N-(3,4-dichlorophenyl)-N’-(4-pyridin-3-ylphenyl)thiourea] | > 500 | 173 to 175 | 9.4 | 354 | – | 102000 | – | – | –
FC(F)(F)c1cc(NC(=S)Nc2ccc(-c3cccnc3)cc2)cc(C(F)(F)F)c1 [DATU9, N-[3,5-bis(trifluoromethyl)phenyl]-N’-(4-pyridin-3-ylphenyl)thiourea] | > 500 | 157 to 158 | > 500 | > 500 | – | 166000 | – | – | –
S=C(Nc1ccc(-c2cccnc2)cc1)Nc1ccc2c(c1)OCO2 [DATU10, N-1,3-benzodioxol-5-yl-N’-(4-pyridin-3-ylphenyl)thiourea] | > 500 | 147 to 148 | > 500 | 20.4 | – | 90600 | – | – | –
CNC(=O)c1cc(Oc2ccc(NC(=O)Nc3ccc(Cl)c(C(F)(F)F)c3)cc2)ccn1 [Sorafenib, sorafenib, reference compound] | – | – | – | – | – | – | 16.8 ± 0.9 | 53 | 0.398 ± 0.8
CNC(=O)c1cc(Oc2ccc(NC(=O)Nc3ccc(Cl)c(C(F)(F)F)c3)c(F)c2)ccn1 [regorafenib, reference compound] | – | – | – | – | 11 min and 10.6 min | – | – | – | –

Second part, led by results:

IC50 (EphB4) [nM] | melting point [°C] | IC50 (TIE-2) [nM] | IC50 (VEGFR-2 [1]) [nM] | Retention time on VEGFR-2/cell membrane stationary phase column (VEGFR-2 [2]) | Structure (SMILES) | IC50 (EA.hy926) [nM] | Final body weight (MCF-7 xenograft) [g] | Tumor growth inhibition (MCF-7 xenograft) [%] | Final tumor weight (MCF-7 xenograft; control 0.848±0.5) [g]
20 | 197 to 199 | 25.7 | 20.6 | – | FC(F)(F)c1cc(Br)cc(NC(=S)Nc2ccc(-c3cccnc3)cc2)c1 [DATU1, N-[3-bromo-5-(trifluoromethyl)phenyl]-N’-(4-pyridin-3-ylphenyl)thiourea] | – | – | – | –
> 500 | – | 70.5 | 194 | – | O=C(Nc1ccc(-c2ccc3c(=O)[nH]cnc3c2)cc1)Nc1cccc(C(F)(F)F)c1 [QDAU1, 1-(4-(4-oxo-3,4-dihydroquinazolin-7-yl)phenyl)-3-(3-(trifluoromethyl)phenyl)urea] | 57900 | – | – | –
> 500 | > 300 | 83.9 | 57.9 | – | O=C(Nc1ccc(-c2ccc3c(=O)[nH]cnc3c2)cc1)Nc1cccc(Cl)c1 [QDAU2, 1-(3-chlorophenyl)-3-(4-(4-oxo-3,4-dihydroquinazolin-7-yl)phenyl)urea] | 66300 | – | – | –
5.64 | > 300 | 90.7 | > 500 | – | O=C(Nc1ccc(-c2ccc3c(=O)[nH]cnc3c2)cc1)Nc1cccc(F)c1 [QDAU3, 1-(3-fluorophenyl)-3-(4-(4-oxo-3,4-dihydroquinazolin-7-yl)phenyl)ure] | 42600 | – | – | –
> 500 | > 300 | 101 | 6.28 | – | O=C(Nc1ccc(F)cc1)Nc1ccc(-c2ccc3c(=O)[nH]cnc3c2)cc1 [QDAU6, 1-(4-fluorophenyl)-3-(4-(4-oxo-3,4-dihydroquinazolin-7-yl)phenyl)urea] | 255000 | – | – | –
> 500 | > 300 | 258 | > 500 | – | O=C(Nc1ccc(OC(F)(F)F)cc1)Nc1ccc(-c2ccc3c(=O)[nH]cnc3c2)cc1 [QDAU7, 1-(4-(4-oxo-3,4-dihydroquinazolin-7-yl)phenyl)-3-(4-(trifluoromethoxy)phenyl)urea] | 68500 | – | – | –
> 500 | > 300 | > 500 | 41.5 | – | CC(C)c1cccc(NC(=O)Nc2ccc(-c3ccc4c(=O)[nH]cnc4c3)cc2)c1 [QDAU8, 1-(3-isopropylphenyl)-3-(4-(4-oxo-3,4-dihydroquinazolin-7-yl)phenyl)urea] | 76200 | – | – | –
24.4 | > 300 | 19.6 | 15.8 | – | O=C(Nc1ccc(-c2ccc3c(=O)[nH]cnc3c2)cc1)Nc1ccc(Cl)c(C(F)(F)F)c1 [QDAU9, 1-(4-chloro-3-(trifluoromethyl)phenyl)-3-(4-(4-oxo-3,4-dihydroquinazolin-7-yl)phenyl)urea] | 13000 | – | – | –
> 500 | > 300 | 52.7 | 50.7 | – | O=C(Nc1ccc(-c2ccc3c(=O)[nH]cnc3c2)cc1)Nc1ccc(C(F)(F)F)cc1 [QDAU10, 1-(4-(4-oxo-3,4-dihydroquinazolin-7-yl)phenyl)-3-(4-(trifluoromethyl)phenyl)urea] | 125000 | – | – | –
